Consider ten molecules from ChEMBL document CHEMBL1201862, “PubChem BioAssay data set” (2004).

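Grown in 96-well plates, cells were treated for 48 hours with each compound at five concentrations. Insufficient inhibition: endpoint recorded as highest concentration tested. Abbreviation: GI50, concentration required for 50% inhibition of growth.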 Active and inactive are the calls of the source. Rule as the data show it: active = GI50 up to about 1.1 µM and inactive = higher.

Among the test systems are OVCAR-3; HCC 2998; SK-MEL-28; SW-620; A549; CAKI-1; SNB-75; RXF 393; NCI-H460; MCF7; UO-31; NCI-H23; OVCAR-4; OVCAR-8; KM12; SN12C; UACC-257; SK-MEL-5; Malme-3M; TK-10.
Holding throughout (assay): NCI anticancer screen, dose series, 48 h

With `O=C1OCC=C1COC1OC(CO)C(O)C(O)C1O` (stereo unspecified), the GI50 in the assay with OVCAR-3, with HCC 2998, with SK-MEL-28, with SW-620, in the assay on A549 and with CAKI-1 was > 100 µM (inactive) in each case. Besides, the GI50 in the assay with SNB-75, in the assay on RXF 393, with NCI-H460, with MCF7, in the assay with UO-31 and in the assay with NCI-H23 was > 100 µM (inactive) each time. In addition, the GI50 with OVCAR-4, in the assay with OVCAR-8, with KM12, in the assay on SN12C, with UACC-257 and with SK-MEL-5 was > 100 µM (inactive) in each case. Moreover, the GI50 with Malme-3M and with TK-10 was > 100 µM (inactive) each time.

`Cc1cc(S(=O)(=O)NC2=NCc3nc4ccccc4n32)c(S)cc1Cl`: the GI50 in the assay on OVCAR-3 was 19.9 µM (inactive); with HCC 2998, 17.2 µM (inactive); in the assay on SK-MEL-28 it was 30.5 µM (inactive); in the assay with SW-620, 47.6 µM (inactive); with A549 it was 25.8 µM (inactive); in the assay with CAKI-1, 35.2 µM (inactive). For the same molecule, the GI50 was 24.2 µM (inactive) in the assay on SNB-75; 12.9 µM (inactive) with RXF 393; 27.7 µM (inactive) with NCI-H460; 30.3 µM (inactive) in the assay with MCF7; 26.4 µM (inactive) in the assay with UO-31; 29.4 µM (inactive) in the assay with OVCAR-4. The GI50 in the assay on OVCAR-8 was 28.1 µM (inactive); in the assay with KM12 it was 21.2 µM (inactive); with SN12C, 23.5 µM (inactive); in the assay with UACC-257 it was 24.2 µM (inactive); with SK-MEL-5, 16.9 µM (inactive); with Malme-3M, 22.5 µM (inactive). In addition, the GI50 in the assay with TK-10 was 38.8 µM (inactive).

For the molecule `O=C1c2cc3c(cc2CC12Cc1ccc4c(c1C2=O)CCC4)CCCC3` (stereo unspecified), the GI50 with OVCAR-3, in the assay on HCC 2998, in the assay with SK-MEL-28, in the assay on SW-620, in the assay on A549 and in the assay on CAKI-1 was > 100 µM (inactive) throughout. Also, the GI50 was 5.7 µM (inactive) in the assay with SNB-75; > 100 µM (inactive) in the assay on RXF 393; > 100 µM (inactive) in the assay on NCI-H460; > 100 µM (inactive) in the assay on MCF7; > 100 µM (inactive) in the assay on UO-31; > 100 µM (inactive) in the assay on NCI-H23. Besides, the GI50 in the assay on OVCAR-4 was > 100 µM (inactive); in the assay on OVCAR-8, > 100 µM (inactive); in the assay with UACC-257, > 100 µM (inactive); in the assay on SK-MEL-5, > 100 µM (inactive); with Malme-3M, 60 µM (inactive); in the assay with TK-10 it was > 100 µM (inactive).

For `Cc1nc2ccccc2c(=O)n1CC(=O)O`, the GI50 in the assay with OVCAR-3, in the assay on HCC 2998, with SK-MEL-28, in the assay with SW-620, in the assay with A549 and in the assay with CAKI-1 was > 100 µM (inactive) throughout. For the same molecule, the GI50 in the assay with SNB-75, in the assay on RXF 393, with NCI-H460, in the assay with MCF7, in the assay with UO-31 and in the assay on NCI-H23 was > 100 µM (inactive) throughout. In addition, the GI50 in the assay with OVCAR-4, in the assay on OVCAR-8, in the assay on KM12, with SN12C, in the assay on UACC-257 and in the assay with SK-MEL-5 was > 100 µM (inactive) in each case. Further, the GI50 in the assay with Malme-3M is > 100 µM (inactive).

Consider `Nc1ccc2c(c1)C1=NNC(=O)CC1C2` (stereo unspecified), for which the GI50 in the assay on OVCAR-3 is > 31.6 µM (inactive); in the assay on HCC 2998, > 74.1 µM (inactive); with SK-MEL-28, > 100 µM (inactive); with SW-620, > 100 µM (inactive); with A549, > 100 µM (inactive); in the assay on CAKI-1, > 100 µM (inactive). The GI50 was 78.5 µM (inactive) in the assay with SNB-75; > 100 µM (inactive) with RXF 393; > 100 µM (inactive) in the assay on NCI-H460; > 31.6 µM (inactive) in the assay on MCF7; > 100 µM (inactive) with UO-31; > 100 µM (inactive) in the assay on NCI-H23. Besides, the GI50 with OVCAR-4 is 47.8 µM (inactive); in the assay on OVCAR-8, > 100 µM (inactive); in the assay on KM12, > 100 µM (inactive); in the assay with SN12C it was > 100 µM (inactive); in the assay on UACC-257 it was > 100 µM (inactive); with SK-MEL-5, > 100 µM (inactive). The GI50 with Malme-3M was > 100 µM (inactive).

Take `N#C[C@H](c1ccccn1)c1nc2ccccc2nc1Cl`: the GI50 with OVCAR-3, with HCC 2998, with SK-MEL-28, in the assay on SW-620, with A549 and in the assay with CAKI-1 was > 100 µM (inactive) each time. The GI50 with SNB-75, with RXF 393, in the assay on NCI-H460, in the assay on MCF7, in the assay on UO-31 and in the assay on NCI-H23 was > 100 µM (inactive) each time. Moreover, the GI50 is > 100 µM (inactive) with OVCAR-4; > 100 µM (inactive) in the assay with OVCAR-8; 36.5 µM (inactive) with KM12; > 100 µM (inactive) in the assay with SN12C; > 100 µM (inactive) in the assay with UACC-257; > 100 µM (inactive) in the assay on SK-MEL-5. Moreover, the GI50 with Malme-3M was > 100 µM (inactive).

`O=C1CC2(CCC(O)(c3ccc4ccccc4c3)C(C(=O)c3ccc4ccccc4c3)C2)C(=O)c2ccccc2N1` (stereo unspecified): the GI50 with OVCAR-3, in the assay with HCC 2998, in the assay with SK-MEL-28, with SW-620, in the assay on A549 and with CAKI-1 was > 100 µM (inactive) in each case. Also, the GI50 was > 100 µM (inactive) in the assay on SNB-75; > 100 µM (inactive) with RXF 393; 29 µM (inactive) in the assay with NCI-H460; 7.59 µM (inactive) in the assay on MCF7; > 100 µM (inactive) with UO-31; > 100 µM (inactive) with NCI-H23. Moreover, the GI50 in the assay with OVCAR-8 is > 100 µM (inactive); in the assay on SN12C it was > 100 µM (inactive); in the assay on UACC-257 it was > 100 µM (inactive); with SK-MEL-5, 23 µM (inactive); with Malme-3M it was > 100 µM (inactive); in the assay with TK-10 it was > 100 µM (inactive).

In the case of `Cc1c(Cc2ccccc2)n(COCCCO)c(=O)[nH]c1=O`, the GI50 with OVCAR-3, in the assay with HCC 2998, in the assay on SK-MEL-28, in the assay with SW-620, in the assay on A549 and in the assay with CAKI-1 was > 100 µM (inactive) throughout. The GI50 in the assay with SNB-75, in the assay on RXF 393, in the assay on NCI-H460, with MCF7, with UO-31 and in the assay with NCI-H23 was > 100 µM (inactive) throughout. Besides, the GI50 in the assay on OVCAR-4, in the assay with OVCAR-8, in the assay on KM12, in the assay with SN12C, in the assay on UACC-257 and in the assay on SK-MEL-5 was > 100 µM (inactive) in each case. In addition, the GI50 in the assay with Malme-3M and in the assay with TK-10 was > 100 µM (inactive) in each case.

In the case of `CC(NNC(=O)c1cc[n+]([BH2-]C#N)cc1)c1ccc(Cl)c(Cl)c1` (stereo unspecified), the GI50 in the assay on OVCAR-3 is 26.9 µM (inactive); in the assay on HCC 2998, 42.6 µM (inactive); in the assay with SK-MEL-28, 40.8 µM (inactive); in the assay with SW-620, 45.1 µM (inactive); with A549 it was 32.5 µM (inactive); in the assay with CAKI-1, 18.1 µM (inactive). Moreover, the GI50 in the assay on SNB-75 is 34.8 µM (inactive); with RXF 393, 38.5 µM (inactive); in the assay with NCI-H460, 27.2 µM (inactive); in the assay on MCF7 it was 26.9 µM (inactive); with UO-31, 30 µM (inactive); with NCI-H23 it was 20.7 µM (inactive). In addition, the GI50 in the assay on OVCAR-4 was 30.9 µM (inactive); in the assay with OVCAR-8 it was 42.8 µM (inactive); in the assay on KM12, 40.5 µM (inactive); with SN12C it was 34.5 µM (inactive); with UACC-257 it was 36.3 µM (inactive); with SK-MEL-5, 19.7 µM (inactive). Moreover, the GI50 is 30.9 µM (inactive) with Malme-3M and 28.6 µM (inactive) in the assay on TK-10.

With `CC(=O)O[C@H]1CC[C@@]2(C)[C@H](CC[C@@H]3[C@@H]2CC[C@]2(C)[C@@H](c4ccc(=O)oc4)C[C@H]4O[C@]342)C1`, the GI50 is 0.338 µM (active) with OVCAR-3; 1.33 µM (inactive) in the assay with HCC 2998; 2.2 µM (inactive) in the assay with SK-MEL-28; 0.665 µM (active) in the assay with SW-620; 0.213 µM (active) with A549; 0.397 µM (active) in the assay on CAKI-1. Moreover, the GI50 with SNB-75 was 0.708 µM (active); with RXF 393, 0.147 µM (active); with NCI-H460, 0.212 µM (active); with MCF7, 1.27 µM (inactive); in the assay on UO-31 it was 0.791 µM (active); with NCI-H23 it was 0.327 µM (active). Besides, the GI50 in the assay with OVCAR-4 was 0.675 µM (active); with OVCAR-8, 0.509 µM (active); with KM12 it was 2.36 µM (inactive); with SN12C it was 0.327 µM (active); in the assay with UACC-257, 1.06 µM (active); with SK-MEL-5, 0.34 µM (active). In the assay on Malme-3M, the GI50 is 0.571 µM (active).
